Test results reported in PMC4849076, “New Cyclic Lipopeptides of the Iturin Class Produced by Saltern-Derived Bacillus sp. KCB14S006” (Marine Drugs, 2016).
pIC50: −log10 of the molar value. Values after ≈ are worked out from the molar mass of the structure shown. Like-named read-outs stand apart in the source and are kept apart here. *1 amine or outer side, *2 acyl side, *3 side chain or, on linkers, in order; H or OH if unused. Where a SMILES comes first, the peptide text is derived from it. [ ]: non-standard residue; d: D form. X1 = CCC(C)CCCCCCCCCC[C@H](CC(=O)[*:2])N[*:1]; X2 = CC(C)CCCCCCCCCCC[C@H](CC(=O)[*:2])N[*:1]; Hyp = O=C(O)[C@@H]1C[C@@H](O)CN1

How the values were obtained:
[1] = tested on: Neurospora crassa KCTC 6079; test: Antifungal assay (MIC), Neurospora crassa; assay type: cell-based; details: for MIC: Neurospora crassa, potato dextrose broth, 2% of overnight cultures, 28 °C, 72 h, lowest concentration preventing visible growth; for Antifungal activity compared with 3 and 4: N. crassa, from MIC
Description: (§1) The following microorganisms were used as test strains in the assay; Aspergillus flavus KCTC 6984, Neurospora crassa KCTC 6079, Candida tropicalis KCTC 7830, Candida albicans KCTC 7678, Fusarium oxysporum f. sp. cucumerinum KCTC 6084, Alternaria brassicicola ATCC 96836 and Penicillium griseofulvum KCTC 6435. Potato dextrose broth (Difco Laboratories) was used for a test medium. For C. albicans and C. tropicalis, 100 μL of inoculum suspension of 10^5 spores/mL was plated into 96-well plates containing diluted test compounds, and the plates were incubated at 28 °C for 48 h. For A. flavus, N. crassa, F. oxysporum, A. brassicicola and P. griseofulvum, 100 μL of cell suspension containing 2% of overnight cultures in 96-well were incubated at 28 °C for 72 h. The MIC values were determined as the lowest concentration of each compound that prevented visible growth.

[2] = tested on: Aspergillus flavus KCTC 6984; test: Antifungal assay (MIC), Aspergillus flavus; assay type: cell-based; details: for MIC: Aspergillus flavus, potato dextrose broth, 2% of overnight cultures, 28 °C, 72 h, lowest concentration preventing visible growth; for Antifungal activity compared with 3 and 4: A. flavus, from MIC
Description: as §1

[3] = tested on: Penicillium griseofulvum KCTC 6435; test: Antifungal assay (MIC), Penicillium griseofulvum; assay type: cell-based; details: for MIC: Penicillium griseofulvum, potato dextrose broth, 2% of overnight cultures, 28 °C, 72 h, lowest concentration preventing visible growth; for Antifungal activity compared with 3 and 4: P. griseofulvum, from MIC
Description: as §1

[4] = tested on: Fusarium oxysporum f. sp. cucumerinum KCTC 6084; test: Antifungal assay (MIC), Fusarium oxysporum; assay type: cell-based
Description: as §1

[5] = tested on: Candida tropicalis KCTC 7830; test: Antifungal assay (MIC), Candida tropicalis; assay type: cell-based; details: 10^5 spores/mL, 28 °C, 48 h, lowest concentration preventing visible growth
Description: as §1

[6] = tested on: Candida albicans KCTC 7678; test: Antifungal assay (MIC), Candida albicans; assay type: cell-based; details: for MIC: Candida albicans, potato dextrose broth, 10^5 spores/mL, 28 °C, 48 h, lowest concentration preventing visible growth; for Antifungal activity compared with 3 and 4: C. albicans, from MIC
Description: as §1

[7] = tested on: Alternaria brassicicola ATCC 96836; test: Antifungal assay (MIC), Alternaria brassicicola; assay type: cell-based; details: 2% of overnight cultures, 28 °C, 72 h, lowest concentration preventing visible growth
Description: as §1

[8] = Cytotoxicity assay, src^ts-NRK; assay type: cell-based; details: rat, src^ts-NRK cells, MEM + 10% calf serum, 32 °C (permissive temperature), WST-8, absorbance 450 nm, read-out: Cytotoxic activity, IC50
Description: (§2) The human cervix epidermoid carcinoma cell line HeLa was cultured at 37 °C in DMEM (Invitrogen/Life Technologies, Carlsbad, CA, USA), supplemented with 10% fetal bovine serum (Sigma-Aldrich, St. Louis, MO, USA). src^ts-NRK cells, rat kidney cells that were infected with ts25, a T-class mutant of Rous sarcoma virus Prague strain, were cultured at permissive temperature (32 °C) in MEM (Sigma-Aldrich), supplemented with 10% calf serum (PAA Laboratories, Pashing, Austria). Each cell line was seeded into a 96-well plate (HeLa, 4 × 10^3 cells/well; src^ts-NRK, 1 × 10^4 cells/well) and then exposed to test compounds. After 48 h incubation, cell proliferation was determined using a Cell Count Reagent SF (Nacalai Tesque). Briefly, a 1/10 volume of WST-8 solution was added to each well, and the plates were incubated at 37 °C for 1 h. Then, the absorbance at 450 nm was measured in a microplate reader.

Cytotoxicity assay, HeLa = assay type: cell-based; details: human, HeLa cells, DMEM + 10% fetal bovine serum, 37 °C, WST-8, absorbance 450 nm, read-out: Cytotoxic activity, IC50
Description: as §2

human recombinant IDO = target: T1, human recombinant IDO (Homo sapiens, UniProt P14902); test: Indoleamine 2,3-dioxygenase (IDO) inhibition assay; assay type: biochemical
T1 construct: made in house; host or cells: E. coli
Description: The enzymatic inhibition assay was performed with human recombinant IDO expressed in E. coli according to previously described method with some modifications. The reaction mixture (200 μL) contained 50 mM potassium phosphate buffer (pH 6.5), 20 mM ascorbic acid, 10 μM methylene blue, 200 μM L-Trp, 20 μg/mL catalase and a sample in 2 μL of DMSO. The samples were serially diluted […] from 50 to 0.1 μM. The reaction was started by the addition of IDO and continued at 37 °C for 60 min. After termination of the reaction by addition of 40 μL of 30% (w/v) trichloroacetic acid, the resulting mixtures were incubated at 60 °C for 15 min, followed by centrifugation at 2000 × g for 15 min. Finally, 125 μL of supernatant is added to 125 μL of p-dimethylaminobenzaldehyde (pDMAB) (2%, v/v) in acetic acid, and the absorbance at 480 nm was measured.

Akt signaling network = tested on: Akt signaling network; design: method as in PMID 25974307; details: MDA-MB-231 and MCF-7 breast cancer cells; cited from earlier work
MCF-7 = tested on: MCF-7; design: method as in PMID 25974307; details: MCF-7 breast cancer cells; cited from earlier work
MDA-MB-231 = tested on: MDA-MB-231; design: method as in PMID 25974307; details: MDA-MB-231 breast cancer cells; cited from earlier work
[9] = potato dextrose broth, 2% of overnight cultures, 28 °C, 72 h, lowest concentration preventing visible growth

T1 sequence (P14902 whole entry): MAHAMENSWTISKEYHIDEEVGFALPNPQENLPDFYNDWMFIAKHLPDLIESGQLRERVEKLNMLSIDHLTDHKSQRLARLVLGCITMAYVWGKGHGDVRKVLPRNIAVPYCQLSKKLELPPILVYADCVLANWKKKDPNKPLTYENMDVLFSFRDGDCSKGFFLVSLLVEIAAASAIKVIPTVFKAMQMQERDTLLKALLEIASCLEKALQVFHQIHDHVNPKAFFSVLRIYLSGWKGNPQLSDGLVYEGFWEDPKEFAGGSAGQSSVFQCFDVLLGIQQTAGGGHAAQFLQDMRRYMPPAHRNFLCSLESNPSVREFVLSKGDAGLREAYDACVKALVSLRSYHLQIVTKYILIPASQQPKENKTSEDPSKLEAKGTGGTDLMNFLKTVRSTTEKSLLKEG

Row | Molecule | MIC [1] [µg/mL] | IC50 at 48 h [8] [µM] | MIC [2] [µg/mL] | MIC [3] [µg/mL] | MIC [4, 9] [µg/mL] | MIC ([5]; potato dextrose broth) [µg/mL] | MIC [6] [µg/mL] | MIC ([7]; potato dextrose broth) [µg/mL] | IC50 at 48 h (Cytotoxicity assay, HeLa) [µM] | other results
1 | C[C@@H]1[C@H](O)[C@@H](C)/C=C/C=C/C=C/C=C/C=C/C=C/C=C/[C@H](O[C@@H]2O[C@H](C)[C@@H](O)[C@H](N)[C@@H]2O)C[C@@H]2O[C@](O)(C[C@@H](O)C[C@@H](O)[C@H](O)CC[C@@H](O)C[C@@H](O)CC(=O)O[C@H]1C)C[C@H](O)[C@H]2C(=O)O [Amphotericin B, reference compound] |  |  |  |  |  |  |  |  |  | MIC ([1]; KCTC6079, read-out: MIC): 0.098 µg/mL (≈ 0.106 µM); MIC ([2]; KCTC6984, read-out: MIC): 0.195 µg/mL (≈ 0.211 µM); MIC ([3]; KCTC6435, read-out: MIC): 3.12 µg/mL (≈ 3.38 µM); MIC ([4]; KCTC6084, 72 h): 12.5 µg/mL (≈ 13.5 µM); MIC ([5]; KCTC7830, potato dextrose broth, read-out: MIC): 0.781 µg/mL (≈ 0.845 µM); MIC ([6]; KCTC7678, read-out: MIC): 0.098 µg/mL (≈ 0.106 µM); MIC ([7]; ATCC96836, potato dextrose broth, read-out: MIC): 0.391 µg/mL (≈ 0.423 µM)
2 | CC(C)CCCCCCCCCCC[C@@H]1CC(=O)N[C@@H](CC(N)=O)C(=O)N[C@H](Cc2ccc(O)cc2)C(=O)N[C@H](CC(N)=O)C(=O)N[C@@H](CCC(N)=O)C(=O)N2C[C@H](O)C[C@H]2C(=O)N[C@H](CC(N)=O)C(=O)N[C@@H](CO)C(=O)N1 [Compound 1, Iturin F1] (cyclo(N[dY][dN]Q[Hyp][dN]S[X2])) | 6.25 (≈ 5.68 µM) | 8.9 | 3.125 (≈ 2.84 µM) | 3.125 (≈ 2.84 µM) | 25 (≈ 22.7 µM) | 6.25 (≈ 5.68 µM) | 6.25 (≈ 5.68 µM) | 25 (≈ 22.7 µM) | 8.9 | Antifungal activity compared with 3 and 4 [1]: better activities than 3 and 4; Antifungal activity compared with 3 and 4 [2]: better activities than 3 and 4; Antifungal activity compared with 3 and 4 [3]: better activities than 3 and 4; Antifungal activity compared with 3 and 4 [6]: better activities than 3 and 4
3 | CCC(C)CCCCCCCCCC[C@@H]1CC(=O)N[C@@H](CC(N)=O)C(=O)N[C@H](Cc2ccc(O)cc2)C(=O)N[C@H](CC(N)=O)C(=O)N[C@@H](CCC(N)=O)C(=O)N2C[C@H](O)C[C@H]2C(=O)N[C@H](CC(N)=O)C(=O)N[C@@H](CO)C(=O)N1 (stereo partly drawn) [Compound 2, Iturin F2] (cyclo(N[dY][dN]Q[Hyp][dN]S[X1])) | 6.25 (≈ 5.68 µM) | 7.4 | 3.125 (≈ 2.84 µM) | 3.125 (≈ 2.84 µM) | 25 (≈ 22.7 µM) | 6.25 (≈ 5.68 µM) | 6.25 (≈ 5.68 µM) | 25 (≈ 22.7 µM) | 7.8 | Antifungal activity compared with 3 and 4 [1]: better activities than 3 and 4; Antifungal activity compared with 3 and 4 [2]: better activities than 3 and 4; Antifungal activity compared with 3 and 4 [3]: better activities than 3 and 4; Antifungal activity compared with 3 and 4 [6]: better activities than 3 and 4
4 | CC(C)CCCCCCCCCCC[C@@H]1CC(=O)N[C@@H](CC(N)=O)C(=O)N[C@H](Cc2ccc(O)cc2)C(=O)N[C@H](CC(N)=O)C(=O)N[C@@H](CCC(N)=O)C(=O)N2CCC[C@H]2C(=O)N[C@H](CC(N)=O)C(=O)N[C@@H](CO)C(=O)N1 [Compound 3, Iturin A9] (cyclo(N[dY][dN]QP[dN]S[X2])) | 12.5 (≈ 11.5 µM) | 5.2 | 25 (≈ 23 µM) | 6.25 (≈ 5.76 µM) | 25 (≈ 23 µM) | 6.25 (≈ 5.76 µM) | 12.5 (≈ 11.5 µM) | 25 (≈ 23 µM) | 4.6 | 
5 | CCC(C)CCCCCCCCCC[C@@H]1CC(=O)N[C@@H](CC(N)=O)C(=O)N[C@H](Cc2ccc(O)cc2)C(=O)N[C@H](CC(N)=O)C(=O)N[C@@H](CCC(N)=O)C(=O)N2CCC[C@H]2C(=O)N[C@H](CC(N)=O)C(=O)N[C@@H](CO)C(=O)N1 (stereo partly drawn) [Compound 4, Iturin A8] (cyclo(N[dY][dN]QP[dN]S[X1])) | 12.5 (≈ 11.5 µM) | 9 | 12.5 (≈ 11.5 µM) | 6.25 (≈ 5.76 µM) | 25 (≈ 23 µM) | 6.25 (≈ 5.76 µM) | 12.5 (≈ 11.5 µM) | 25 (≈ 23 µM) | 5.6 | pIC50 (human recombinant IDO; human recombinant IDO expressed in E. coli, 50 mM potassium phosphate pH 6.5, 200 μM L-Trp, 37 °C, 60 min, pDMAB, absorbance 480 nm, read-out: IDO inhibition, IC50): 5.26; IDO inhibitory activity (in words) (human recombinant IDO; human recombinant IDO, pH 6.5, 200 μM L-Trp, 37 °C, 60 min, samples 0.1 to 50 μM): significant inhibitory activity
6 | CC1=CC(=O)c2ccccc2C1=O [menadione, reference compound] |  |  |  |  |  |  |  |  |  | pIC50 (human recombinant IDO): 6.19
7 | iturin A |  |  |  |  |  |  |  |  |  | Inhibition of Akt signaling network (Akt signaling network): inhibiting the Akt signaling network; Inhibition of proliferation (MCF-7): inhibits the proliferation; Inhibition of proliferation (MDA-MB-231): inhibits the proliferation
